Experimental data from US20230382851A1, “GAMMA-HYDRO[…] AND PROCESSES FOR MAKING AND USING THEM” (Zevra Therapeutics, Inc., priority 2022, published 2023).

Test: Pharmacokinetics of GHB in plasma after oral gavage of GHB delivering compounds; relative oral bioavailability vs sodium oxybate
Settings: vehicle water
[1] = molar equivalent of 100 mg/kg NaGHB
[2] = dose equivalent to 80 mg/kg NaGHB

Row | Structure (SMILES) | % AUC0-4 hr vs study comparator (sodium oxybate) [1] [%] | % Cmax vs study comparator (sodium oxybate) [1] [%] | % AUC0-4 hr vs study comparator (sodium oxybate) [2] [%] | % Cmax vs study comparator (sodium oxybate) [2] [%]
1 | O=C1CCCO1 [GBL] | 27 | 70 | – | –
2 | CCOC(=O)OCCCC(=O)O [O-(ethoxycarbonyl)-GHB, O-(Ethoxycarbonyl)-GHB] | – | – | 54 | 51
